Measurements reported in PubChem BioAssay (NCI).
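Grown in 96-well plates, cells were treated for 48 hours with each compound at five concentrations. Insufficient inhibition: endpoint recorded as highest concentration tested. TGI marks complete inhibition of growth.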

What was measured:
Experiment in all cases: growth of human tumour cells (NCI), 48 h
SF-295 CNS = test system: SF-295 CNS
SK-MEL-2 melanoma = test system: SK-MEL-2 melanoma
MALME-3M melanoma = test system: MALME-3M melanoma
HT29 colon = test system: HT29 colon
OVCAR-3 ovarian = test system: OVCAR-3 ovarian
DMS 273 small cell lung = test system: DMS 273 small cell lung
OVCAR-8 ovarian = test system: OVCAR-8 ovarian
LOX IMVI melanoma = test system: LOX IMVI melanoma
KM20L2 colon = test system: KM20L2 colon
SNB-78 CNS = test system: SNB-78 CNS
TK-10 renal = test system: TK-10 renal
OVCAR-4 ovarian = test system: OVCAR-4 ovarian
RXF 393 renal = test system: RXF 393 renal
MDA-MB-435 = test system: MDA-MB-435
SK-MEL-5 melanoma = test system: SK-MEL-5 melanoma
MCF7 breast = test system: MCF7 breast
SF-539 CNS = test system: SF-539 CNS
786-0 renal = test system: 786-0 renal
BT-549 breast = test system: BT-549 breast
M19-MEL melanoma = test system: M19-MEL melanoma
UO-31 renal = test system: UO-31 renal
DMS 114 small cell lung = test system: DMS 114 small cell lung
UACC-257 melanoma = test system: UACC-257 melanoma
HOP-92 NSCLC = test system: HOP-92 NSCLC
SNB-75 CNS = test system: SNB-75 CNS
IGROV1 ovarian = test system: IGROV1 ovarian
ACHN renal = test system: ACHN renal
HCC-2998 colon = test system: HCC-2998 colon
NCI/ADR-RES ovarian = test system: NCI/ADR-RES ovarian
NCI-H460 lung = test system: NCI-H460 lung
NCI-H23 lung = test system: NCI-H23 lung
MDA-N = test system: MDA-N
M14 melanoma = test system: M14 melanoma
SN12C renal = test system: SN12C renal
HOP-62 NSCLC = test system: HOP-62 NSCLC
U251 CNS = test system: U251 CNS
HCT-116 colon = test system: HCT-116 colon
PC-3 prostate = test system: PC-3 prostate
CAKI-1 renal = test system: CAKI-1 renal
UACC-62 melanoma = test system: UACC-62 melanoma
T-47D breast = test system: T-47D breast
SR leukemia = test system: SR leukemia
HOP-18 NSCLC = test system: HOP-18 NSCLC
EKVX NSCLC = test system: EKVX NSCLC
HL-60(TB) leukemia = test system: HL-60(TB) leukemia
A498 renal = test system: A498 renal
SW-620 colon = test system: SW-620 colon
SK-MEL-28 melanoma = test system: SK-MEL-28 melanoma
HCT-15 colon = test system: HCT-15 colon
CCRF-CEM leukemia = test system: CCRF-CEM leukemia
RPMI-8226 leukemia = test system: RPMI-8226 leukemia
DU-145 prostate = test system: DU-145 prostate
SK-OV-3 ovarian = test system: SK-OV-3 ovarian
SNB-19 CNS = test system: SNB-19 CNS
DLD-1 colon = test system: DLD-1 colon
MDA-MB-231 breast = test system: MDA-MB-231 breast
A549 NSCLC = test system: A549 NSCLC
SF-268 CNS = test system: SF-268 CNS
LXFL 529 NSCLC = test system: LXFL 529 NSCLC
HS 578T breast = test system: HS 578T breast
COLO 205 colon = test system: COLO 205 colon
OVCAR-5 ovarian = test system: OVCAR-5 ovarian
NCI-H226 lung = test system: NCI-H226 lung
KM12 colon = test system: KM12 colon
MOLT-4 leukemia = test system: MOLT-4 leukemia
NCI-H522 lung = test system: NCI-H522 lung
K-562 leukemia = test system: K-562 leukemia
RXF-631 renal = test system: RXF-631 renal
XF 498 CNS = test system: XF 498 CNS

CC(=O)OC(C)C1C2=C(C(=O)CC1(C)O)C(=O)c1c(ccc(-c3ccc4c(c3O)C(=O)C3=C(C4=O)C(C(C)OC(C)=O)C(C)(O)CC3=O)c1O)C2=O (centres undefined)
TGI (SF-295 CNS): 24 µM
TGI (SK-MEL-2 melanoma): 2.74 µM
TGI (MALME-3M melanoma): 2.12 µM
TGI (HT29 colon): 3.98 µM
TGI (OVCAR-3 ovarian): 5.29 µM
TGI (DMS 273 small cell lung): 3.05 µM
TGI (OVCAR-8 ovarian): 7.42 µM
TGI (LOX IMVI melanoma): 3.07 µM
TGI (KM20L2 colon): 4.59 µM
TGI (SNB-78 CNS): 9.63 µM
TGI (TK-10 renal): 5.41 µM
TGI (OVCAR-4 ovarian): 5.26 µM
TGI (RXF 393 renal): 3.59 µM
TGI (MDA-MB-435): 4.19 µM
TGI (SK-MEL-5 melanoma): 8.22 µM
TGI (MCF7 breast): 4.06 µM
TGI (SF-539 CNS): 3.54 µM
TGI (786-0 renal): 3.44 µM
TGI (BT-549 breast): 2.83 µM
TGI (M19-MEL melanoma): 2.7 µM
TGI (UO-31 renal): 9.16 µM
TGI (DMS 114 small cell lung): 1.24 µM
TGI (UACC-257 melanoma): 3.48 µM
TGI (HOP-92 NSCLC): 3.08 µM
TGI (SNB-75 CNS): 5.92 µM
TGI (IGROV1 ovarian): 22.4 µM
TGI (ACHN renal): 3.22 µM
TGI (HCC-2998 colon): 25.9 µM
TGI (NCI/ADR-RES ovarian): 45.1 µM
TGI (NCI-H460 lung): 21.7 µM
TGI (NCI-H23 lung): 3.07 µM
TGI (MDA-N): 7.34 µM
TGI (M14 melanoma): 4.3 µM
TGI (SN12C renal): 6.58 µM
TGI (HOP-62 NSCLC): 33.4 µM
TGI (U251 CNS): 12.9 µM
TGI (HCT-116 colon): 1.77 µM
TGI (PC-3 prostate): 8.74 µM
TGI (CAKI-1 renal): 6.06 µM
TGI (UACC-62 melanoma): 3.1 µM
TGI (T-47D breast): 4.61 µM
TGI (SR leukemia): 26.5 µM
TGI (HOP-18 NSCLC): 1.74 µM
TGI (EKVX NSCLC): 26.1 µM
TGI (HL-60(TB) leukemia): > 100 µM
TGI (A498 renal): 8.51 µM
TGI (SW-620 colon): 2.1 µM
TGI (SK-MEL-28 melanoma): 4.7 µM
TGI (HCT-15 colon): 5.49 µM
TGI (CCRF-CEM leukemia): > 100 µM
TGI (RPMI-8226 leukemia): > 100 µM
TGI (DU-145 prostate): 18.3 µM
TGI (SK-OV-3 ovarian): 23.6 µM
TGI (SNB-19 CNS): 24 µM
TGI (DLD-1 colon): 2.43 µM
TGI (MDA-MB-231 breast): 4.98 µM
TGI (A549 NSCLC): 18.8 µM
TGI (SF-268 CNS): 19.4 µM
TGI (LXFL 529 NSCLC): 1.51 µM
TGI (HS 578T breast): 5 µM
TGI (COLO 205 colon): 1.92 µM
TGI (OVCAR-5 ovarian): 11.3 µM
TGI (NCI-H226 lung): 27.8 µM
TGI (KM12 colon): 10.6 µM
TGI (MOLT-4 leukemia): > 100 µM
TGI (NCI-H522 lung): 4.25 µM
TGI (K-562 leukemia): > 100 µM

C#CCOc1c(C(=O)OCC)c(=O)n(C)c2ccccc12
TGI (SF-295 CNS): > 100 µM
TGI (SK-MEL-2 melanoma): > 100 µM
TGI (MALME-3M melanoma): > 100 µM
TGI (HT29 colon): > 100 µM
TGI (OVCAR-3 ovarian): > 100 µM
TGI (OVCAR-8 ovarian): > 100 µM
TGI (LOX IMVI melanoma): > 100 µM
TGI (KM20L2 colon): > 100 µM
TGI (SNB-78 CNS): > 100 µM
TGI (TK-10 renal): > 100 µM
TGI (SK-MEL-5 melanoma): > 100 µM
TGI (SF-539 CNS): > 100 µM
TGI (M19-MEL melanoma): > 100 µM
TGI (UO-31 renal): > 100 µM
TGI (DMS 114 small cell lung): > 100 µM
TGI (HOP-92 NSCLC): > 100 µM
TGI (SNB-75 CNS): > 100 µM
TGI (IGROV1 ovarian): > 100 µM
TGI (ACHN renal): > 100 µM
TGI (NCI-H460 lung): > 100 µM
TGI (NCI-H23 lung): > 100 µM
TGI (M14 melanoma): > 100 µM
TGI (SN12C renal): > 100 µM
TGI (RXF-631 renal): > 100 µM
TGI (U251 CNS): > 100 µM
TGI (CAKI-1 renal): > 100 µM
TGI (UACC-62 melanoma): > 100 µM
TGI (HOP-18 NSCLC): > 100 µM
TGI (EKVX NSCLC): > 100 µM
TGI (HL-60(TB) leukemia): > 100 µM
TGI (A498 renal): > 100 µM
TGI (SW-620 colon): > 100 µM
TGI (SK-MEL-28 melanoma): > 100 µM
TGI (HCT-15 colon): > 100 µM
TGI (CCRF-CEM leukemia): > 100 µM
TGI (RPMI-8226 leukemia): > 100 µM
TGI (SK-OV-3 ovarian): > 100 µM
TGI (SNB-19 CNS): > 100 µM
TGI (DLD-1 colon): > 100 µM
TGI (XF 498 CNS): > 100 µM
TGI (SF-268 CNS): > 100 µM
TGI (LXFL 529 NSCLC): > 100 µM
TGI (COLO 205 colon): > 100 µM
TGI (NCI-H226 lung): > 100 µM
TGI (MOLT-4 leukemia): > 100 µM
TGI (NCI-H522 lung): > 100 µM
TGI (K-562 leukemia): > 100 µM

CCC1(c2c(F)c(F)c(N)c(F)c2F)CCC(=O)NC1=O (centres undefined)
TGI (SF-295 CNS): > 100 µM
TGI (SK-MEL-2 melanoma): > 100 µM
TGI (MALME-3M melanoma): > 100 µM
TGI (HT29 colon): > 100 µM
TGI (OVCAR-3 ovarian): > 100 µM
TGI (DMS 273 small cell lung): > 100 µM
TGI (OVCAR-8 ovarian): > 100 µM
TGI (LOX IMVI melanoma): > 100 µM
TGI (SNB-78 CNS): > 100 µM
TGI (TK-10 renal): > 100 µM
TGI (OVCAR-4 ovarian): > 100 µM
TGI (SK-MEL-5 melanoma): > 100 µM
TGI (SF-539 CNS): > 100 µM
TGI (786-0 renal): > 100 µM
TGI (M19-MEL melanoma): > 100 µM
TGI (UO-31 renal): > 100 µM
TGI (DMS 114 small cell lung): > 100 µM
TGI (UACC-257 melanoma): > 100 µM
TGI (HOP-92 NSCLC): > 100 µM
TGI (SNB-75 CNS): > 100 µM
TGI (IGROV1 ovarian): > 100 µM
TGI (ACHN renal): > 100 µM
TGI (HCC-2998 colon): > 100 µM
TGI (NCI-H460 lung): > 100 µM
TGI (NCI-H23 lung): > 100 µM
TGI (M14 melanoma): > 100 µM
TGI (HOP-62 NSCLC): > 100 µM
TGI (U251 CNS): > 100 µM
TGI (HCT-116 colon): > 100 µM
TGI (CAKI-1 renal): > 100 µM
TGI (UACC-62 melanoma): > 100 µM
TGI (SR leukemia): > 100 µM
TGI (HOP-18 NSCLC): > 100 µM
TGI (EKVX NSCLC): > 100 µM
TGI (HL-60(TB) leukemia): > 100 µM
TGI (A498 renal): > 100 µM
TGI (SW-620 colon): > 100 µM
TGI (SK-MEL-28 melanoma): > 100 µM
TGI (HCT-15 colon): > 100 µM
TGI (CCRF-CEM leukemia): > 100 µM
TGI (RPMI-8226 leukemia): > 100 µM
TGI (SK-OV-3 ovarian): > 100 µM
TGI (SNB-19 CNS): > 100 µM
TGI (DLD-1 colon): > 100 µM
TGI (XF 498 CNS): > 100 µM
TGI (A549 NSCLC): > 100 µM
TGI (SF-268 CNS): > 100 µM
TGI (LXFL 529 NSCLC): > 100 µM
TGI (COLO 205 colon): > 100 µM
TGI (OVCAR-5 ovarian): > 100 µM
TGI (NCI-H226 lung): > 100 µM
TGI (KM12 colon): > 100 µM
TGI (MOLT-4 leukemia): > 100 µM
TGI (NCI-H522 lung): > 100 µM
TGI (K-562 leukemia): > 100 µM
